Reference: PMC12298827, “Subchronic Toxicities of Four Per- and Polyfluoroalkyl Substances (PFASs) by Oral Exposure in Sprague–Dawley Rats” (Toxics, 2025)

Tested on: male and female Sprague–Dawley rats
Assay: 90-day subchronic oral gavage toxicity study
Format: in vivo, rat
Set-up: key to NOEL, absolute liver weight increase / LOEL, absolute liver weight increase / NOEL, relative kidney weight increase / LOEL, relative kidney weight increase / NOEL, absolute kidney weight increase / LOEL, absolute kidney weight increase / NOEL, relative liver weight increase / LOEL, relative liver weight increase: NR: no response, no statistically significant dose-dependent changes
Experimental: Subchronic (90-day) studies were performed in accordance with current U.S. EPA’s Toxic Substances Control Act Good Laboratory Practice (GLP) Standards, with the following two general exceptions to the GLP guidelines: Analysis of the dose formulations was conducted according to RTI-approved Standard Operating Procedures, and corn oil (the vehicle) was not characterized (certificate of analysis from the vendor is available in the appendices to the final reports). Male and female Sprague–Dawley rats (five dose levels plus a control, n = 10/sex/dose group, corn oil vehicle dose volume of 3 mL/kg; oral gavage) were used in these studies, and the rats were euthanized on SD 91. The dose levels for PFHI were 0, 12.5, 25, 50, 100, and 200 mg/kg-day. The dose levels for MHFPK were 0, 18.8, 37.5, 75, 150, and 300 mg/kg-day. The dose levels for PFNAC were 0, 0.1, 0.3, 1.0, 3.0, and 10 mg/kg-day for male rats and 0, 0.3, 1.0, 3.0, 10, and 30 mg/kg-day for female rats. For CTFPA, the dose levels were 0, 1.9, 3.8. 7.5, 15, and 30 mg/kg-day for male rats and 0, 6.3, 12.5, 25, 50, and 100 mg/kg-day for female rats. For each PFAS, three batches of dosing solution were prepared. The time between the batch preparation of the dosing solutions ranged between 29 and 39 days. Blood samples were collected from all the rats at termination for serum chemistry, hematology, coagulation, and the analysis of the parent PFAS chemical in the plasma. In vivo data collection and further detail on the endpoints examined postmortem are described below.
The rats were observed twice daily for morbidity and mortality throughout the study period. At least once prior to randomization to test groups and weekly thereafter, the rats were physically examined, and bodyweights were obtained. Feed consumption was quantified weekly starting on SD 1.
Neurotoxicity was evaluated using the functional observational battery (FOB) and measuring locomotor activity (LMA) 2–4 h post dosing on SDs 78–80 and 80–84, respectively. For both the 14- and 90-day studies, an ophthalmologic examination was conducted prior to randomization and near the end of the study, using indirect ophthalmoscopy and slit–lamp biomicroscopy (as needed) after the administration of a mydriatic solution.
Hematology, biochemistry, and coagulation endpoints were measured at the termination of the study. A Siemens Advia 2120i hematology analyzer (Siemens Healthineers, Erlangen, Germany) was used to measure (or calculate) the parameters related to the complete blood count, leukocyte differential count, and reticulocyte count. The hematology parameters are listed and described in Table 2. The prothrombin time […] and activated partial thromboplastin time (APTT) were measured using an Instrumentation Laboratory (Bedford, MA, USA) ACL Elite Pro coagulation analyzer (laser–nephelometric centrifugal method).
At necropsy, the rats were visually examined for external abnormalities and organ weights (absolute and relative to the BW and brain weight), which were recorded (paired organs weighed together). The tissues were preserved in 10% neutral buffered formalin (NBF), except for the ocular tissues, testes, and epididymides, which were preserved in modified Davidson’s fixative and later transferred to 10% NBF. Bone marrow smears were prepared from the femurs, and the slides were air-dried, fixed in methanol, stained, and stored at room temperature for possible future evaluation. The preserved tissues were embedded in paraffin, sectioned, stained with hematoxylin and eosin, and examined by a board-certified veterinary pathologist.
Statistical analysis was performed using Provantis™ Version 10 or greater (Instem LSS, Limited; Stone, Staffordshire, UK). Differences among the treatment groups compared to the control were evaluated using one-way analysis of variance (ANOVA) if the underlying assumptions of a normal distribution (Shapiro–Wilk test) and the homogeneity of the variance (Levene’s test) were satisfied. […]

SMILES: O=C(O)C(F)(Cl)C(F)(F)F (centres unmarked) [CTFPA, 2-Chloro-2,3,3,3-tetrafluoropropanoic acid]
- Liver Weight (female, 100 mg/kg-day): 11.31 g
- Liver/Body Weight (female, 100 mg/kg-day): 3.57%
- Liver/Brain Weight (female, 100 mg/kg-day): 575%
- MPV (female, 100 mg/kg-day): 8.01 ± 0.50 fL
- PT (female, 100 mg/kg-day): 14.22 s
- Total BW change (female, 100 mg/kg-day): 107.34 g
- Total Food Consumed (female, 100 mg/kg-day): 1615 g
- BMDL, absolute liver weight increase (male): 11.6 mg/kg-day
- LOEL, absolute kidney weight increase (male): NR
- LOEL, absolute liver weight increase (male): 7.5 mg/kg-day
- LOEL, relative kidney weight increase (male): NR
- LOEL, relative liver weight increase (male): 3.8 mg/kg-day
- NOEL, absolute kidney weight increase (male): NR
- NOEL, absolute liver weight increase (male): 3.8 mg/kg-day
- NOEL, relative kidney weight increase (male): NR
- NOEL, relative liver weight increase (male): 1.9 mg/kg-day
- % BW Gain (male, 1.9 mg/kg-day): 125.06%
- % Diff, % BW Gain (male, 1.9 mg/kg-day): -0.26%
- % Diff, Total BW change (male, 1.9 mg/kg-day): -0.03%
- % Diff, Total Food Consumed (male, 1.9 mg/kg-day): 0.81%
- A/G (male, 1.9 mg/kg-day): 0.95±0.07 ratio
- ALB (male, 1.9 mg/kg-day): 3.35 ± 0.17 g/dL
- ALPi (male, 1.9 mg/kg-day): 139.8±40.4 U/L
- APTT (male, 1.9 mg/kg-day): 18.83 s
- BUN (male, 1.9 mg/kg-day): 14.8 ± 1.8 mg/dL
- CHOL (male, 1.9 mg/kg-day): 84.4 ± 9.8 mg/dL
- GLOB (male, 1.9 mg/kg-day): 3.52 ± 0.20 g/dL
- GLUC (male, 1.9 mg/kg-day): 170.1 ± 32.6 mg/dL
- HCT (male, 1.9 mg/kg-day): 50.28±1.93%
- HGB (male, 1.9 mg/kg-day): 15.58 ± 0.65 g/dL
- Kidney Weight (male, 1.9 mg/kg-day): 3.12 g
- Kidney/Body Weight (male, 1.9 mg/kg-day): 0.56%
- Kidney/Brain Weight (male, 1.9 mg/kg-day): 150%
- Liver Weight (male, 1.9 mg/kg-day): 14.47 g
- Liver/Body Weight (male, 1.9 mg/kg-day): 2.58%
- Liver/Brain Weight (male, 1.9 mg/kg-day): 697%
- MPV (male, 1.9 mg/kg-day): 7.50 ± 0.37 fL
- PT (male, 1.9 mg/kg-day): 15.55 s
- Total BW change (male, 1.9 mg/kg-day): 316.63 g
- Total Food Consumed (male, 1.9 mg/kg-day): 2084 g
- % BW Gain (male, 3.8 mg/kg-day): 137.76%
- % Diff, % BW Gain (male, 3.8 mg/kg-day): 9.87%
- % Diff, Total BW change (male, 3.8 mg/kg-day): 11.95%
- % Diff, Total Food Consumed (male, 3.8 mg/kg-day): 9.08%
- A/G (male, 3.8 mg/kg-day): 0.93±0.20 ratio
- ALB (male, 3.8 mg/kg-day): 3.29 ± 0.48 g/dL
- ALPi (male, 3.8 mg/kg-day): 131.8±40.1 U/L
- APTT (male, 3.8 mg/kg-day): 16.21 s
- BUN (male, 3.8 mg/kg-day): 15.6 ± 2.5 mg/dL
- CHOL (male, 3.8 mg/kg-day): 79.3 ± 17.3 mg/dL
- GLOB (male, 3.8 mg/kg-day): 3.65 ± 0.66 g/dL
- GLUC (male, 3.8 mg/kg-day): 173.7 ± 32.5 mg/dL
- HCT (male, 3.8 mg/kg-day): 49.12±2.10%
- HGB (male, 3.8 mg/kg-day): 15.20 ± 0.71 g/dL
- Kidney Weight (male, 3.8 mg/kg-day): 3.35 g
- Kidney/Body Weight (male, 3.8 mg/kg-day): 0.56%
- Kidney/Brain Weight (male, 3.8 mg/kg-day): 152%
- Liver Weight (male, 3.8 mg/kg-day): 17.18 g
- Liver/Body Weight (male, 3.8 mg/kg-day): 2.85%
- Liver/Brain Weight (male, 3.8 mg/kg-day): 780%
- MPV (male, 3.8 mg/kg-day): 7.79 ± 0.46 fL
- PT (male, 3.8 mg/kg-day): 15.25 s
- Total BW change (male, 3.8 mg/kg-day): 354.57 g
- Total Food Consumed (male, 3.8 mg/kg-day): 2255 g
- % BW Gain (male, 7.5 mg/kg-day): 145.16%
- % Diff, % BW Gain (male, 7.5 mg/kg-day): 15.76%
- % Diff, Total BW change (male, 7.5 mg/kg-day): 18.72%
- % Diff, Total Food Consumed (male, 7.5 mg/kg-day): 13.5%
- A/G (male, 7.5 mg/kg-day): 1.05±0.14 ratio
- ALB (male, 7.5 mg/kg-day): 3.39 ± 0.32 g/dL
- ALPi (male, 7.5 mg/kg-day): 159.9±63.1 U/L
- APTT (male, 7.5 mg/kg-day): 14.52 s
- BUN (male, 7.5 mg/kg-day): 15.5 ± 2.2 mg/dL
- CHOL (male, 7.5 mg/kg-day): 74.2 ± 8.5 mg/dL
- GLOB (male, 7.5 mg/kg-day): 3.24 ± 0.19 g/dL
- GLUC (male, 7.5 mg/kg-day): 165.6 ± 25.1 mg/dL
- HCT (male, 7.5 mg/kg-day): 47.49±2.30%
- HGB (male, 7.5 mg/kg-day): 14.52 ± 0.72 g/dL
- Kidney Weight (male, 7.5 mg/kg-day): 3.47 g
- Kidney/Body Weight (male, 7.5 mg/kg-day): 0.56%
- Kidney/Brain Weight (male, 7.5 mg/kg-day): 159%
- Liver Weight (male, 7.5 mg/kg-day): 20.01 g
- Liver/Body Weight (male, 7.5 mg/kg-day): 3.24%
- Liver/Brain Weight (male, 7.5 mg/kg-day): 912%
- MPV (male, 7.5 mg/kg-day): 7.61 ± 0.38 fL
- PT (male, 7.5 mg/kg-day): 15.14 s
- Total BW change (male, 7.5 mg/kg-day): 376.00 g
- Total Food Consumed (male, 7.5 mg/kg-day): 2345 g
- % BW Gain (male, 15 mg/kg-day): 135.14%
- % Diff, % BW Gain (male, 15 mg/kg-day): 7.78%
- % Diff, Total BW change (male, 15 mg/kg-day): 8.09%
- % Diff, Total Food Consumed (male, 15 mg/kg-day): 14.6%
- A/G (male, 15 mg/kg-day): 1.16±0.11 ratio
- ALB (male, 15 mg/kg-day): 3.56 ± 0.21 g/dL
- ALPi (male, 15 mg/kg-day): 237.6±66.2 U/L
- APTT (male, 15 mg/kg-day): 12.89 s
- BUN (male, 15 mg/kg-day): 15.8 ± 2.4 mg/dL
- CHOL (male, 15 mg/kg-day): 63.6 ± 10.8 mg/dL
- GLOB (male, 15 mg/kg-day): 3.07 ± 0.19 g/dL
- GLUC (male, 15 mg/kg-day): 175.2 ± 15.8 mg/dL
- HCT (male, 15 mg/kg-day): 47.72±2.58%
- HGB (male, 15 mg/kg-day): 14.62 ± 0.84 g/dL
- Kidney Weight (male, 15 mg/kg-day): 3.40 g
- Kidney/Body Weight (male, 15 mg/kg-day): 0.58%
- Kidney/Brain Weight (male, 15 mg/kg-day): 147%
- Liver Weight (male, 15 mg/kg-day): 20.28 g
- Liver/Body Weight (male, 15 mg/kg-day): 3.47%
- Liver/Brain Weight (male, 15 mg/kg-day): 873%
- MPV (male, 15 mg/kg-day): 7.56 ± 0.43 fL
- PT (male, 15 mg/kg-day): 15.24 s
- Total BW change (male, 15 mg/kg-day): 342.33 g
- Total Food Consumed (male, 15 mg/kg-day): 2368 g
- % BW Gain (male, 30 mg/kg-day): 121.40%
- % Diff, % BW Gain (male, 30 mg/kg-day): -3.18%
- % Diff, Total BW change (male, 30 mg/kg-day): -0.72%
- % Diff, Total Food Consumed (male, 30 mg/kg-day): 10.33%
- A/G (male, 30 mg/kg-day): 1.19±0.12 ratio
- ALB (male, 30 mg/kg-day): 3.72 ± 0.22 g/dL
- ALPi (male, 30 mg/kg-day): 282.9±80.3 U/L
- APTT (male, 30 mg/kg-day): 12.13 s
- Absolute and relative thymus weights (male, 30 mg/kg-day): significantly increased
- BUN (male, 30 mg/kg-day): 18.7 ± 2.7 mg/dL
- CHOL (male, 30 mg/kg-day): 68.5 ± 10.0 mg/dL
- GLOB (male, 30 mg/kg-day): 3.14 ± 0.22 g/dL
- GLUC (male, 30 mg/kg-day): 175.3 ± 23.2 mg/dL
- HCT (male, 30 mg/kg-day): 47.32±2.15%
- HGB (male, 30 mg/kg-day): 14.44 ± 0.69 g/dL
- Kidney Weight (male, 30 mg/kg-day): 3.35 g
- Kidney/Body Weight (male, 30 mg/kg-day): 0.60%
- Kidney/Brain Weight (male, 30 mg/kg-day): 148%
- Liver Weight (male, 30 mg/kg-day): 21.52 g
- Liver/Body Weight (male, 30 mg/kg-day): 3.82%
- Liver/Brain Weight (male, 30 mg/kg-day): 954%
- MPV (male, 30 mg/kg-day): 7.54 ± 0.47 fL
- PT (male, 30 mg/kg-day): 15.74 s
- Total BW change (male, 30 mg/kg-day): 314.42 g
- Total Food Consumed (male, 30 mg/kg-day): 2281 g
